Paper PMC11845477, “Exploring the principles behind antibiotics with limited resistance” (Nature Communications, 2025)

Key:
[1] = tested on: K. pneumoniae ATCC 10031 (SEN) and K. pneumoniae ATCC 700603 (MDR); assay: Adaptive laboratory evolution (ALE), relative MIC of evolved lines; assay type: cell-based, Klebsiella pneumoniae
In short: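 Ten parallel populations per antibiotic–ancestor pair were evolved in MHB at 37 °C, starting near 50% growth-inhibiting drug. Every 72 h they were passaged into 0.5–2.5× increasing concentrations, keeping the highest-drug well with OD600 > 0.2.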

[2] = tested on: E. coli BW25113-ΔacrB; assay: AcrAB-TolC efflux deficiency screen, relative MIC; assay type: cell-based, Escherichia coli; details: ΔacrB vs wild-type
In short: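 Broth microdilution in MHB (supplemented MS for SCH79797), ten-step antibiotic dilutions, 5 × 10^5 cells/mL, 18 h at 37 °C with shaking; MIC is lowest concentration giving background-corrected OD600 < 0.05. Relative MIC as log2 ratio: ΔacrB vs wild-type; pUCacrAB vs empty pUC118 (plasmid strains under 100 µg/mL ampicillin). Mean of 3 biological replicates.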

[3] = KP-SEN (Klebsiella pneumoniae ATCC 10031), evolved line 1
[4] = KP-SEN (Klebsiella pneumoniae ATCC 10031), evolved line 4
[5] = KP-SEN (Klebsiella pneumoniae ATCC 10031), evolved line 8
[6] = KP-SEN (Klebsiella pneumoniae ATCC 10031), evolved line 9
[7] = KP-SEN, Klebsiella pneumoniae ATCC 10031, evolved line 5

**Q.** Which results are given for `CC(C)c1ccc(Cn2ccc3c4c(N)nc(NC5CC5)nc4ccc32)cc1` [SCH79797]?
**A.** Relative MIC ([1]; ALE, Klebsiella pneumoniae ATCC 10031 (KP-SEN), evolved line 1): 16; Relative MIC ([1]; ALE, Klebsiella pneumoniae ATCC 10031 (KP-SEN), evolved line 2): 4; Relative MIC ([1]; ALE, Klebsiella pneumoniae ATCC 10031 (KP-SEN), evolved line 3): 2; Relative MIC ([1]; ALE, Klebsiella pneumoniae ATCC 10031 (KP-SEN), evolved line 4): 16; Relative MIC ([1]; ALE, Klebsiella pneumoniae ATCC 10031 (KP-SEN), evolved line 5): 32; Relative MIC ([1]; ALE, Klebsiella pneumoniae ATCC 10031 (KP-SEN), evolved line 6): 2; Relative MIC ([1]; ALE, Klebsiella pneumoniae ATCC 10031 (KP-SEN), evolved line 7): 4; Relative MIC ([1]; ALE, Klebsiella pneumoniae ATCC 10031 (KP-SEN), evolved line 8): 8; Relative MIC ([1]; ALE, Klebsiella pneumoniae ATCC 10031 (KP-SEN), evolved line 9): 8; Relative MIC ([1]; ALE, Klebsiella pneumoniae ATCC 10031 (KP-SEN), evolved line 10): 2; MIC of evolved line ([1]; KP-SEN (K. pneumoniae ATCC 10031), evolved line 1 of the given antibiotic): 64 µg/mL; Relative MIC ([1]; KP-SEN (K. pneumoniae ATCC 10031), evolved line 1 vs ancestor): 16; MIC of evolved line ([1]; KP-SEN (K. pneumoniae ATCC 10031), evolved line 2 of the given antibiotic): 16 µg/mL; Relative MIC ([1]; KP-SEN (K. pneumoniae ATCC 10031), evolved line 2 vs ancestor): 4; MIC of evolved line ([1]; KP-SEN (K. pneumoniae ATCC 10031), evolved line 3 of the given antibiotic): 8 µg/mL; Relative MIC ([1]; KP-SEN (K. pneumoniae ATCC 10031), evolved line 3 vs ancestor): 2; MIC of evolved line ([1]; KP-SEN (K. pneumoniae ATCC 10031), evolved line 4 of the given antibiotic): 64 µg/mL; Relative MIC ([1]; KP-SEN (K. pneumoniae ATCC 10031), evolved line 4 vs ancestor): 16; MIC of evolved line ([1]; KP-SEN (K. pneumoniae ATCC 10031), evolved line 5 of the given antibiotic): 128 µg/mL; Relative MIC ([1]; KP-SEN (K. pneumoniae ATCC 10031), evolved line 5 vs ancestor): 32; MIC of evolved line ([1]; KP-SEN (K. pneumoniae ATCC 10031), evolved line 6 of the given antibiotic): 8 µg/mL; Relative MIC ([1]; KP-SEN (K. pneumoniae ATCC 10031), evolved line 6 vs ancestor): 2; MIC of evolved line ([1]; KP-SEN (K. pneumoniae ATCC 10031), evolved line 7 of the given antibiotic): 16 µg/mL; Relative MIC ([1]; KP-SEN (K. pneumoniae ATCC 10031), evolved line 7 vs ancestor): 4; MIC of evolved line ([1]; KP-SEN (K. pneumoniae ATCC 10031), evolved line 8 of the given antibiotic): 32 µg/mL; Relative MIC ([1]; KP-SEN (K. pneumoniae ATCC 10031), evolved line 8 vs ancestor): 8; MIC of evolved line ([1]; KP-SEN (K. pneumoniae ATCC 10031), evolved line 9 of the given antibiotic): 32 µg/mL; Relative MIC ([1]; KP-SEN (K. pneumoniae ATCC 10031), evolved line 9 vs ancestor): 8; MIC of evolved line ([1]; KP-SEN (K. pneumoniae ATCC 10031), evolved line 10 of the given antibiotic): 8 µg/mL; Relative MIC ([1]; KP-SEN (K. pneumoniae ATCC 10031), evolved line 10 vs ancestor): 2; Relative MIC [1, 3]: 16; Relative MIC (log10) [1, 3]: 1.204 log10; Relative MIC ([1]; KP-SEN (Klebsiella pneumoniae ATCC 10031), evolved line 2): 4; Relative MIC ([1]; KP-SEN (Klebsiella pneumoniae ATCC 10031), evolved line 3): 2; Relative MIC [1, 4]: 16; Relative MIC (log10) [1, 4]: 1.204 log10; Relative MIC ([1]; KP-SEN (Klebsiella pneumoniae ATCC 10031), evolved line 6): 2; Relative MIC [1, 5]: 8; Relative MIC (log10) [1, 5]: 0.9031 log10; Relative MIC [1, 6]: 8; Relative MIC (log10) [1, 6]: 0.9031 log10; Relative MIC ([1]; KP-SEN (Klebsiella pneumoniae ATCC 10031), evolved line 10): 2; Relative MIC [1, 7]: 32; Relative MIC (log10) [1, 7]: 1.505 log10; Relative MIC ([1]; KP-SEN, Klebsiella pneumoniae ATCC 10031, evolved line 7): 4; Relative MIC ([1]; Klebsiella pneumoniae ATCC 10031 (KP-SEN), evolved line 1): 16; Relative MIC ([1]; Klebsiella pneumoniae ATCC 10031 (KP-SEN), evolved line 2): 4; Relative MIC ([1]; Klebsiella pneumoniae ATCC 10031 (KP-SEN), evolved line 3): 2; Relative MIC ([1]; Klebsiella pneumoniae ATCC 10031 (KP-SEN), evolved line 4): 16; Relative MIC ([1]; Klebsiella pneumoniae ATCC 10031 (KP-SEN), evolved line 5): 32; Relative MIC ([1]; Klebsiella pneumoniae ATCC 10031 (KP-SEN), evolved line 6): 2; Relative MIC ([1]; Klebsiella pneumoniae ATCC 10031 (KP-SEN), evolved line 7): 4; Relative MIC ([1]; Klebsiella pneumoniae ATCC 10031 (KP-SEN), evolved line 8): 8; Relative MIC ([1]; Klebsiella pneumoniae ATCC 10031 (KP-SEN), evolved line 9): 8; Relative MIC ([1]; Klebsiella pneumoniae ATCC 10031 (KP-SEN), evolved line 10): 2; Relative MIC (log2) ([2]; replicate 1): -1; Relative MIC (log2) ([2]; replicate 2): -1; Relative MIC (log2) ([2]; replicate 3): -1
